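GI50 = concentration required for 50% inhibition of growth. The concentration for full growth arrest is given as TGI.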
How the values were obtained:
Test in all cases: NCI anticancer screen, dose series, 384-well format
786-0 renal = system: 786-0 renal
A498 renal = system: A498 renal
A549 NSCLC = system: A549 NSCLC
ACHN renal = system: ACHN renal
BT-549 breast = system: BT-549 breast
CCRF-CEM leukemia = system: CCRF-CEM leukemia
DU-145 prostate = system: DU-145 prostate
EKVX NSCLC = system: EKVX NSCLC
HCC-2998 colon = system: HCC-2998 colon
HCT-15 colon = system: HCT-15 colon
HOP-62 NSCLC = system: HOP-62 NSCLC
HOP-92 NSCLC = system: HOP-92 NSCLC
HT29 colon = system: HT29 colon
IGROV1 ovarian = system: IGROV1 ovarian
M14 melanoma = system: M14 melanoma
MALME-3M melanoma = system: MALME-3M melanoma
MCF7 breast = system: MCF7 breast
MDA-MB-231 breast = system: MDA-MB-231 breast
MOLT-4 leukemia = system: MOLT-4 leukemia
NCI-H226 lung = system: NCI-H226 lung
NCI-H23 lung = system: NCI-H23 lung
NCI-H322M lung = system: NCI-H322M lung
NCI-H460 NSCLC = system: NCI-H460 NSCLC
OVCAR-3 ovarian = system: OVCAR-3 ovarian
OVCAR-4 ovarian = system: OVCAR-4 ovarian
OVCAR-5 ovarian = system: OVCAR-5 ovarian
OVCAR-8 ovarian = system: OVCAR-8 ovarian
PC-3 prostate = system: PC-3 prostate
RPMI-8226 leukemia = system: RPMI-8226 leukemia
RXF 393 renal = system: RXF 393 renal
SF-268 CNS = system: SF-268 CNS
SF-295 CNS = system: SF-295 CNS
SF-539 CNS = system: SF-539 CNS
SK-MEL-2 melanoma = system: SK-MEL-2 melanoma
SK-MEL-28 melanoma = system: SK-MEL-28 melanoma
SK-MEL-5 melanoma = system: SK-MEL-5 melanoma
SK-OV-3 ovarian = system: SK-OV-3 ovarian
SN12C renal = system: SN12C renal
SNB-19 CNS = system: SNB-19 CNS
SNB-75 CNS = system: SNB-75 CNS
SR leukemia = system: SR leukemia
SW-620 colon = system: SW-620 colon
T-47D breast = system: T-47D breast
TK-10 renal = system: TK-10 renal
U251 glioblastoma = system: U251 glioblastoma
UACC-257 melanoma = system: UACC-257 melanoma
UO-31 renal = system: UO-31 renal

C=CC(=O)Nc1cccc(Oc2nc(Nc3ccc(N4CCN(C)CC4)cc3)nc3ccsc23)c1
GI50 (786-0 renal): 1460 nM
TGI (786-0 renal): 2810 nM
GI50 (A498 renal): 1220 nM
TGI (A498 renal): 2490 nM
GI50 (A549 NSCLC): 1640 nM
TGI (A549 NSCLC): 3500 nM
GI50 (ACHN renal): 1260 nM
TGI (ACHN renal): 2690 nM
GI50 (BT-549 breast): 1380 nM
TGI (BT-549 breast): 2690 nM
GI50 (CCRF-CEM leukemia): 1500 nM
TGI (CCRF-CEM leukemia): 2840 nM
GI50 (DU-145 prostate): 1420 nM
TGI (DU-145 prostate): 3210 nM
GI50 (EKVX NSCLC): 1310 nM
TGI (EKVX NSCLC): 3840 nM
GI50 (HCC-2998 colon): 1700 nM
TGI (HCC-2998 colon): 3090 nM
GI50 (HCT-15 colon): 1560 nM
TGI (HCT-15 colon): 3030 nM
GI50 (HOP-62 NSCLC): 2000 nM
TGI (HOP-62 NSCLC): 4540 nM
GI50 (HOP-92 NSCLC): 1370 nM
TGI (HOP-92 NSCLC): 2950 nM
GI50 (HT29 colon): 1740 nM
TGI (HT29 colon): 3160 nM
GI50 (IGROV1 ovarian): 1060 nM
TGI (IGROV1 ovarian): 2260 nM
GI50 (M14 melanoma): 1890 nM
TGI (M14 melanoma): 3320 nM
GI50 (MALME-3M melanoma): 1760 nM
TGI (MALME-3M melanoma): 3160 nM
GI50 (MCF7 breast): 1550 nM
TGI (MCF7 breast): 2960 nM
GI50 (MDA-MB-231 breast): 1700 nM
TGI (MDA-MB-231 breast): 3330 nM
GI50 (MOLT-4 leukemia): 1530 nM
TGI (MOLT-4 leukemia): 2890 nM
GI50 (NCI-H226 lung): 1570 nM
TGI (NCI-H226 lung): 3880 nM
GI50 (NCI-H23 lung): 1940 nM
TGI (NCI-H23 lung): 5370 nM
GI50 (NCI-H322M lung): 902 nM
TGI (NCI-H322M lung): 3350 nM
GI50 (NCI-H460 NSCLC): 1620 nM
TGI (NCI-H460 NSCLC): 3030 nM
GI50 (OVCAR-3 ovarian): 923 nM
TGI (OVCAR-3 ovarian): 2200 nM
GI50 (OVCAR-4 ovarian): 1690 nM
TGI (OVCAR-4 ovarian): 3130 nM
GI50 (OVCAR-5 ovarian): 2020 nM
TGI (OVCAR-5 ovarian): 5790 nM
GI50 (OVCAR-8 ovarian): 1590 nM
TGI (OVCAR-8 ovarian): 3000 nM
GI50 (PC-3 prostate): 1700 nM
TGI (PC-3 prostate): 3120 nM
GI50 (RPMI-8226 leukemia): 1460 nM
TGI (RPMI-8226 leukemia): 2780 nM
GI50 (RXF 393 renal): 1230 nM
TGI (RXF 393 renal): 2490 nM
GI50 (SF-268 CNS): 1840 nM
TGI (SF-268 CNS): 4010 nM
GI50 (SF-295 CNS): 5010 nM
TGI (SF-295 CNS): 15700 nM
GI50 (SF-539 CNS): 1750 nM
TGI (SF-539 CNS): 3150 nM
GI50 (SK-MEL-2 melanoma): 1610 nM
TGI (SK-MEL-2 melanoma): 2970 nM
GI50 (SK-MEL-28 melanoma): 1740 nM
TGI (SK-MEL-28 melanoma): 3140 nM
GI50 (SK-MEL-5 melanoma): 1840 nM
TGI (SK-MEL-5 melanoma): 3250 nM
GI50 (SK-OV-3 ovarian): 1570 nM
TGI (SK-OV-3 ovarian): 4190 nM
GI50 (SN12C renal): 1350 nM
TGI (SN12C renal): 2750 nM
GI50 (SNB-19 CNS): 1820 nM
TGI (SNB-19 CNS): 3700 nM
GI50 (SNB-75 CNS): 1350 nM
TGI (SNB-75 CNS): 2740 nM
GI50 (SR leukemia): 857 nM
TGI (SR leukemia): 1950 nM
GI50 (SW-620 colon): 1740 nM
TGI (SW-620 colon): 3140 nM
GI50 (T-47D breast): 1500 nM
TGI (T-47D breast): 2840 nM
GI50 (TK-10 renal): 957 nM
TGI (TK-10 renal): 2250 nM
GI50 (U251 glioblastoma): 1650 nM
TGI (U251 glioblastoma): 3060 nM
GI50 (UACC-257 melanoma): 1520 nM
TGI (UACC-257 melanoma): 2870 nM
GI50 (UO-31 renal): 1390 nM
TGI (UO-31 renal): 2700 nM

Reference: PubChem BioAssay (NCI)
